Results from ChEMBL document CHEMBL1201862, “PubChem BioAssay data set” (2004).
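All cell lines were grown in 96-well plates and treated with compound for 48 hours. At the GI50, growth is halved.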 Active and inactive are the calls of the source. Cut-off read from the data, not from the text of the source: active = GI50 up to about 1.1 µM and inactive = higher.

What was measured:
Assay in all cases: NCI-60 cell line screen, 48 h
NCI-H23 = system: NCI-H23
COLO 205 = system: COLO 205
SNB-19 = system: SNB-19
OVCAR-4 = system: OVCAR-4
RXF 393 = system: RXF 393
HCT-15 = system: HCT-15
Malme-3M = system: Malme-3M
UACC-257 = system: UACC-257
EKVX = system: EKVX
HCC 2998 = system: HCC 2998
MOLT-4 = system: MOLT-4
OVCAR-5 = system: OVCAR-5
A549 = system: A549
SK-MEL-28 = system: SK-MEL-28
HOP-92 = system: HOP-92
ACHN = system: ACHN
SF-295 = system: SF-295
DMS-114 = system: DMS-114
HCT-116 = system: HCT-116
NCI-H226 = system: NCI-H226
HOP-62 = system: HOP-62
NCI-H460 = system: NCI-H460
HL-60 = system: HL-60
DMS-273 = system: DMS-273
RPMI-8226 = system: RPMI-8226
NCI-H522 = system: NCI-H522
RXF 631 = system: RXF 631
SNB-75 = system: SNB-75
OVCAR-3 = system: OVCAR-3
SK-MEL-5 = system: SK-MEL-5
SR = system: SR
LOX IMVI = system: LOX IMVI
XF498 = system: XF498
IGROV-1 = system: IGROV-1
CCRF-CEM = system: CCRF-CEM
K562 = system: K562
SNB-78 = system: SNB-78
DLD-1 = system: DLD-1
HT-29 = system: HT-29
OVCAR-8 = system: OVCAR-8
TK-10 = system: TK-10
U-251 = system: U-251
SF-539 = system: SF-539
A498 = system: A498
UACC-62 = system: UACC-62
SK-OV-3 = system: SK-OV-3
M14 = system: M14
786-0 = system: 786-0
LXFL 529 = system: LXFL 529
M19-MEL = system: M19-MEL
SF-268 = system: SF-268
SN12C = system: SN12C
KM12 = system: KM12
CAKI-1 = system: CAKI-1
SW-620 = system: SW-620
SK-MEL-2 = system: SK-MEL-2
KM-20L2 = system: KM-20L2
UO-31 = system: UO-31

With `NCCOc1ccc(/C(=C(/Cl)c2ccccc2)c2ccccc2)cc1` the GI50 (NCI-H23) was 16 µM (inactive), the GI50 (COLO 205) was 1.89 µM (inactive) and the GI50 (SNB-19) was 14.4 µM (inactive). For the same compound, the GI50 (OVCAR-4) was 13 µM (inactive), the GI50 (RXF 393) was 4.03 µM (inactive) and the GI50 (HCT-15) was 6.55 µM. For the same compound, the GI50 (Malme-3M) was 9.27 µM (inactive), the GI50 (UACC-257) was 10.8 µM (inactive) and the GI50 (EKVX) was 15.1 µM (inactive). The GI50 (HCC 2998) was 4.34 µM (inactive), the GI50 (MOLT-4) was 3.14 µM (inactive) and the GI50 (OVCAR-5) was 16.7 µM (inactive). The GI50 (A549) was 16 µM (inactive), the GI50 (SK-MEL-28) was 5.66 µM (inactive) and the GI50 (HOP-92) was 5.18 µM (inactive). The GI50 (ACHN) was 14 µM (inactive), the GI50 (SF-295) was 14.4 µM (inactive) and the GI50 (DMS-114) was 12.9 µM (inactive). For the same compound, the GI50 (HCT-116) was 7.19 µM (inactive), the GI50 (NCI-H226) was 18.7 µM (inactive) and the GI50 (HOP-62) was 17.9 µM (inactive). The GI50 (NCI-H460) was 7.14 µM (inactive), the GI50 (HL-60) was 3.74 µM (inactive) and the GI50 (DMS-273) was 10.6 µM (inactive). The GI50 (RPMI-8226) was 3.17 µM (inactive), the GI50 (NCI-H522) was 12.4 µM (inactive) and the GI50 (RXF 631) was 11.4 µM (inactive). The GI50 (SNB-75) was 11.4 µM (inactive), the GI50 (OVCAR-3) was 12.4 µM (inactive) and the GI50 (SK-MEL-5) was 9.1 µM (inactive). The GI50 (SR) was 3.21 µM (inactive), the GI50 (LOX IMVI) was 4.05 µM (inactive) and the GI50 (XF498) was 5.6 µM (inactive). For the same compound, the GI50 (IGROV-1) was 14.4 µM (inactive), the GI50 (CCRF-CEM) was 7.11 µM (inactive) and the GI50 (K562) was 3.32 µM (inactive). For the same compound, the GI50 (SNB-78) was 10 µM (inactive), the GI50 (DLD-1) was 15.6 µM (inactive) and the GI50 (HT-29) was 3.14 µM (inactive). The GI50 (OVCAR-8) was 14 µM (inactive), the GI50 (TK-10) was 12.9 µM (inactive) and the GI50 (U-251) was 10.9 µM (inactive). For the same compound, the GI50 (SF-539) was 15.3 µM (inactive), the GI50 (A498) was 19.1 µM (inactive) and the GI50 (UACC-62) was 11 µM (inactive). The GI50 (SK-OV-3) was 16.9 µM (inactive), the GI50 (M14) was 2.26 µM (inactive) and the GI50 (786-0) was 7.94 µM (inactive). The GI50 (LXFL 529) was 7.1 µM (inactive), the GI50 (M19-MEL) was 10.7 µM (inactive) and the GI50 (SF-268) was 13.2 µM (inactive). For the same compound, the GI50 (SN12C) was 9.66 µM (inactive), the GI50 (KM12) was 5.18 µM (inactive) and the GI50 (CAKI-1) was 8.34 µM (inactive). For the same compound, the GI50 (SW-620) was 4.19 µM (inactive), the GI50 (SK-MEL-2) was 14.4 µM (inactive) and the GI50 (KM-20L2) was 6.62 µM (inactive). The GI50 (UO-31) was 9.16 µM (inactive).
